Entries after “also recorded” stand apart in the source; their conditions may differ.

We go through one compound from US20060281769A1, “SYNERGISTIC MODULATION OF FLT3 KINASE USING THIENOPYRIMIDINE AND THIENOPYRIDINE KINASE MODULATORS” (priority 2005, published 2006).

The subject of data set [1] is MV4-11 AML cells. The data set can be described thus: Cell proliferation assay MV4-11, single agents and FTI/FLT3 inhibitor combinations. The data set is classed as cell-based, human. The following applies: 72-hour cell proliferation assay, FLT3 dependent cells, depending on the cell type.
Excerpt: (§1) All data points are an average of triplicate samples.
as §1

Data set [2] concerns relapsed and refractory AML. As to conditions: cited from earlier work.
Data set [3] relates to MV4-11 tumor xenografts. The data set can be described thus: MV4-11 human tumor xenograft regression model in nude mice. The data set is classed as in vivo. As to conditions: Tipifarnib 50 mg/kg oral single agent. The method, then: Female athymic nude mice (CD-1, nu/nu, 9-10 weeks old) were obtained from Charles River Laboratories (Wilmington, Mass.) and were maintained according to NIH standards. All mice were group housed (5 mice/cage) under clean-room conditions in sterile micro-isolator cages on a 12-hour light/dark cycle in a room maintained at 21-22° C. and 40-50% humidity. Mice were fed irradiated standard rodent diet and water ad libitum. All animals were housed in a Laboratory Animal Medicine facility that is fully accredited by the American Association for Assessment and Accreditation of Laboratory Animal Care (AAALAC). All procedures involving animals were conducted in compliance with the NIH Guide for the Care and Use of Laboratory Animals and all protocols were approved by an Internal Animal Care and Use Committee (IACUC).
On the day of study termination, a final tumor volume and final body weight were obtained on each animal. […]
The time course of the inhibitory effects of FLT3 inhibitor compounds on the growth of MV4-11 tumors is illustrated in FIG. 1. […] Percent inhibition (% I) of tumor growth was calculated versus tumor growth in the vehicle-treated Control group on the last study day.
(See FIG. 2). […] Percent Inhibition was calculated versus the mean tumor weight in the vehicle-treated control group. Statistical significance versus Control was determined by ANOVA followed by Dunnett's t-test: ** p<0.01. […]

Data set [4] can be described thus: Tolerability in tumor-bearing nude mice (body weight, overt clinical signs). As to conditions: either agent alone or in combination. As for the experimental part:
Female athymic nude mice weighing no less than 20-21 grams were inoculated subcutaneously in the left inguinal region of the thigh with 5×10^6 tumor cells in a delivery volume of 0.2 mL. For regression studies, the tumors were allowed to grow to a pre-determined size prior to initiation of dosing. […] Mice were dosed orally by gavage with vehicle (control group) or compound at various doses twice-daily (b.i.d.) during the week and once-daily (q.d.) on weekends. Dosing was continued for 11 consecutive days, depending on the kinetics of tumor growth and size of tumors in vehicle-treated control mice. […] During the study, tumor growth was measured three times-a-week (M, W, F) using electronic Vernier calipers. Tumor volume (mm^3) was calculated using the formula […], where L=length (mm) and W=width (shortest distance in mm) of the tumor. Body weight was measured three times-a-week and a loss of body weight >10% was used as an indication of lack of compound tolerability. […]
Female athymic nude mice weighing no less than 20-21 grams were inoculated subcutaneously in the left inguinal region of the thigh with 5×10^6 tumor cells in a delivery volume of 0.2 mL. For regression studies, the tumors were allowed to grow to a pre-determined size prior to initiation of dosing. […] During the study, tumor growth was measured three times-a-week (M, W, F) using electronic Vernier calipers. […]

The mark [5] stands for this setting: multicenter Phase II trial, relapsed AML.
Where [6] appears, read: patients with relapsed and refractory AML, phase I.

Take `Cn1cncc1C(N)(c1ccc(Cl)cc1)c1ccc2c(c1)c(-c1cccc(Cl)c1)cc(=O)n2C` (single isomer, unassigned; (+)) [Tipifarnib, (+)-6-[amino(4-chlorophenyl)(1-methyl-1H-imidazol-5-yl)methyl]-4-(3-chlorophenyl)-1-methyl-2(1H)-quinolinone]: in data set [1], the “potency for inhibition of proliferation, single agent” value is reported as “high nanomolar to high picomolar”. For the same compound, in data set [2] (setting [5]), the “>50% reduction in bone marrow blasts” value is on record as 31 of 50 and the “complete responses (bone marrow blasts <5%)” value is 17 of 50. Besides, in data set [2] (setting [6]), the “patients achieving complete remission” value was 2 patients and the response rate is around 30%. Moreover, the “effect on tumor volume versus control” value in data set [3] (nine days, Day 9) is listed as “not significantly reduced; also recorded: ineffective”. For the same compound, in data set [3] (sixteen days), the “effect on tumor growth” value is reported as “ineffective”. In data set [4] (9-day treatment period), the “overt toxicity and adverse effects on body weight” value was “No overt toxicity”. In data set [4] (16-day treatment period), the “overt toxicity and adverse effects on body weight” value is listed as “No overt toxicity”.
